Columns and labels:
[1] = Toxicity (drug death, body weight loss, HNTD) in C51 tumor-bearing BALB/c mice; format: in vivo
Text: The animals are observed every day.
Toxicity was declared at dosages inducing≥20% body weight loss or≥10% drug death

[2] = tested on: colon adenocarcinoma C51; assay: Antitumor efficacy against colon adenocarcinoma C51 grafted in BALB/c mice (T/C, T-C, log cell kill)
Procedure: This efficacy may be quantified, for example, by the log10 cell kill, which is determined according to the following formula:
A product is considered to be active if log10 cell kill is greater than or equal to 0.7. A product is considered to be very active if log10 cell kill is greater than or equal to 2.8.
The combination will manifest therapeutic synergy when the log10 cell kill is greater than the value of the log10 cell kill of the best constituent administered alone at its maximum tolerated dose (by at least 1 log cell kill).
The efficacy of the combinations on solid tumors may be determined experimentally in the following manner:
The animals subjected to the experiment, generally mice, are subcutaneously grafted bilaterally with 30 to 60 mg of a tumor fragment on day 0. The animals are implanted with a murine tumor grafted in the syngenic strain of mice of origin of the tumor, or by a rodent or human tumor xenografted in immunocompromized mice. Some days post tumor implantation, mice are randomized according to their body weight to the different groups of treatments and controls. The animals are observed every day. […] The groups are then weighed once or twice a week until the end of the trial.
The tumors are measured 1 to 5 times a week, depending on the tumor doubling time, until the tumor reaches approximately 2 g, or until the animal dies (if this occurs before the tumor reaches 2 g). The animals are necropsied immediately after euthanasia or death.
Cabazitaxel was weighed for each treatment and dissolved in ethanol. Treatment solutions were prepared first by mixing 1 volume of ethanolic stock solution and 1 volume of polysorbate 80, then by adding 18 volumes of glucose 5% in water. Cabazitaxel was administered intravenously on days 5, 12 (or 13) after tumor implantation.
The tumors of treatment (T) and control (C) groups were measured when the median of control group reached approximately 750 to 1400 mg. The median tumor weight of each group was determined.
Antitumor efficacy was determined by calculating the T/C value in percent: T/C (%)=Median tumor weight of the Treated/control×100
A T/C <10% is considered to indicate high antitumor activity and is the level used by NCI to justify further development (Decision Network-2 level, DN-2).
To better quantify the antitumor activity, another end point, the log cell kill, was used:

[3] = cisplatin dose 75 mg/m^2; value given with 'previously reported'; cited from earlier work
[4] = Phase I study: pharmacokinetics of cabazitaxel and cisplatin in patients; settings: cisplatin 75 mg/m^2 followed by cabazitaxel
[5] = cabazitaxel alone 7.7 mg/kg/inj IV (total 15.4), days 5, 12
[6] = cabazitaxel alone 12.4 mg/kg/inj IV (total 24.8), days 5, 12
[7] = cabazitaxel alone 20.0 mg/kg/inj IV (total 40.0), days 5, 12
[8] = cabazitaxel alone 32.3 mg/kg/inj IV (total 64.6), days 5, 12
[9] = cisplatin alone 2.7 mg/kg/inj IV (total 5.4), days 5, 12

CO[C@H]1C(=O)[C@]2(C)[C@@H](OC)C[C@H]3OC[C@@]3(OC(C)=O)[C@H]2[C@H](OC(=O)c2ccccc2)[C@]2(O)C[C@H](OC(=O)[C@H](O)[C@@H](NC(=O)OC(C)(C)C)c3ccccc3)C(C)=C1C2(C)C [cabazitaxel, 4α-acetoxy-2α-benzoyloxy-5β,20-epoxy-1β-hydroxy-7β, 10β-dimethoxy-9-oxo-11-taxen-13α-yl (2R,3S)-3-tert-butoxycarbonylamino-2-hydroxy-3-phenylpropionate]
Drug death [1, 5]: 0/6 | % Body weight change at nadir ([1]; cabazitaxel alone 7.7 mg/kg/inj IV (total 15.4), days 5, 12, nadir day 9): −6.8% | Drug death [1, 6]: 0/6 | % Body weight change at nadir ([1]; cabazitaxel alone 12.4 mg/kg/inj IV (total 24.8), days 5, 12, nadir day 9): −8.1% | Drug death [1, 7]: 0/6 | % Body weight change at nadir ([1]; cabazitaxel alone 20.0 mg/kg/inj IV (total 40.0), days 5, 12, nadir day 19): −14.6% | Comments [1, 8]: Toxic (6/6 DD) | Drug death [1, 8]: 6/6 | highest nontoxic dose (HNTD) ([1]; cabazitaxel alone IV, days 5, 12 (total injected dose 40 mg/kg)): 20 mg/kg/inj | Comments [2, 5]: Active | T-C in days (750 mg) [2, 5]: 11.0 days | T/C in % on day 20 [2, 5]: 5% | log10 cell kill gross [2, 5]: 1.3 | Comments [2, 6]: Active | T-C in days (750 mg) [2, 6]: 11.7 days | T/C in % on day 20 [2, 6]: 3% | log10 cell kill gross [2, 6]: 1.4 | Comments [2, 7]: HNTD active | T-C in days (750 mg) [2, 7]: 15.2 days | T/C in % on day 20 [2, 7]: 0% | log10 cell kill gross ([2]; cabazitaxel alone 20.0 mg/kg/inj IV (total 40.0), days 5, 12 (HNTD)): 1.8

N.N.[Cl][Pt][Cl] [cisplatin]
AUClast, free platinum [3]: 4170 ng·h/mL | AUClast, total platinum [3]: 45 820 ng.h/mL | effect of cabazitaxel on the PK of cisplatin (total and free) [4]: did not appear to alter | Comments [2, 9]: Active | T-C in days (750 mg) [2, 9]: 15.1 days | T/C in % on day 20 [2, 9]: 2% | log10 cell kill gross [2, 9]: 1.8 | T-C in days (750 mg) ([2]; cisplatin alone […] IV (total 8.6), days 5, 12): 22.1 days

Reference: patent publication US20180153931A1 (Aventis Pharma S.A., priority 2011, published 2018)
